According to PubChem BioAssay AID250 (DTP/NCI, 2004):
Values joined by “and” are separate entries in the source; they are usually repeats but may differ in a detail not shown here. Equal values may be shown once. Inconclusive results and toxic doses are left out.

Test system: BDF1 mice, L1210 leukemia sc, survival T/C
Assay: NCI In Vivo Anticancer Drug Screen. Data for tumor model L1210 Leukemia (subcutaneous) in B6D2F1 (BDF1) mice
Conditions: higher = longer survival
Procedure, shortened: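 Mice carrying transplanted tumors received test compounds, and survival or tumor size was measured. Values are the treated-group measurement (T) divided by that of the vehicle-treated control group (C).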

Structure (SMILES): CN(Cc1cnc2nc(N)nc(N)c2n1)c1ccc(C(=O)N[C@@H](CCC(=O)O)C(=O)O)cc1
- T/C (endpoint: mean survival time, dose: 0.65 mg/kg/injection, schedule: Q01DX009 (sc), vehicle: other): 166 % of control and 168 % of control
- T/C (endpoint: mean survival time, dose: 1.0 mg/kg/injection, schedule: Q01DX015 (ip), vehicle: other): 158 % of control and 163 % of control and 171 % of control
- T/C (endpoint: mean survival time, dose: 1.08 mg/kg/injection, schedule: Q01DX009 (sc), vehicle: other): 158 % of control
- T/C (endpoint: mean survival time, dose: 1.8 mg/kg/injection, schedule: Q01DX009 (sc), vehicle: other): 171 % of control
- T/C (endpoint: mean survival time, dose: 2.0 mg/kg/injection, schedule: Q01DX009 (ip), vehicle: sodium bicarbonate): 154 % of control and 166 % of control
- T/C (endpoint: mean survival time, dose: 4.0 mg/kg/injection, schedule: Q01DX009 (ip), vehicle: sodium bicarbonate): 88 % of control
- T/C (endpoint: mean survival time, dose: 20.0 mg/kg/injection, schedule: Q04DX003 (ip), vehicle: sodium bicarbonate): 158 % of control
- T/C (endpoint: mean survival time, dose: 45.0 mg/kg/injection, schedule: Q04DX004 (ip), vehicle: other): 99 % of control and 101 % of control
- T/C (endpoint: mean survival time, dose: 60.0 mg/kg/injection, schedule: Q04DX004 (ip), vehicle: other): 90 % of control and 105 % of control and 124 % of control
- T/C (endpoint: mean survival time, dose: 80.0 mg/kg/injection, schedule: Q04DX003 (ip), vehicle: sodium bicarbonate): 91 % of control
- T/C (endpoint: mean survival time, dose: 200.0 mg/kg/injection, schedule: Q01DX001 (ip), vehicle: other): 91 % of control and 111 % of control and 116 % of control
- T/C (endpoint: median survival time, dose: 0.01 mg/kg/injection, schedule: Q## X Z (sc), vehicle: other): 100 % of control
- T/C (endpoint: median survival time, dose: 0.02 mg/kg/injection, schedule: Q## X Z (sc), vehicle: other): 100 % of control
- T/C (endpoint: median survival time, dose: 0.03 mg/kg/injection, schedule: Q## X Z (sc), vehicle: other): 105 % of control
- T/C (endpoint: median survival time, dose: 0.05 mg/kg/injection, schedule: Q#A X Z (sc), vehicle: other): 105 % of control
- T/C (endpoint: median survival time, dose: 0.14 mg/kg/injection, schedule: Q#A X Z (sc), vehicle: other): 122 % of control
- T/C (endpoint: median survival time, dose: 0.17 mg/kg/injection, schedule: Q01DX Z (iv), vehicle: other): 112 % of control
- T/C (endpoint: median survival time, dose: 0.23 mg/kg/injection, schedule: Q01DX Z (ip), vehicle: other): 100 % of control
- T/C (endpoint: median survival time, dose: 0.23 mg/kg/injection, schedule: Q01DX Z (sc), vehicle: sodium bicarbonate): 109 % of control
- T/C (endpoint: median survival time, dose: 0.24 mg/kg/injection, schedule: Q01DX Z (sc), vehicle: other): 104 % of control and 108 % of control
- T/C (endpoint: median survival time, dose: 0.3 mg/kg/injection, schedule: Q01DX Z (sc), vehicle: other): 112 % of control
- T/C (endpoint: median survival time, dose: 0.39 mg/kg/injection, schedule: Q01DX006 (sc), vehicle: other): 110 % of control
- T/C (endpoint: median survival time, dose: 0.39 mg/kg/injection, schedule: Q01DX008 (sc), vehicle: other): 110 % of control
- T/C (endpoint: median survival time, dose: 0.39 mg/kg/injection, schedule: Q01DX009 (sc), vehicle: other): 122 % of control
- T/C (endpoint: median survival time, dose: 0.39 mg/kg/injection, schedule: Q01DX Z (ip), vehicle: other): 105 % of control
- T/C (endpoint: median survival time, dose: 0.47 mg/kg/injection, schedule: Q01DX Z (iv), vehicle: other): 112 % of control
- T/C (endpoint: median survival time, dose: 0.47 mg/kg/injection, schedule: Q01DX Z (oral), vehicle: other): 112 % of control
- T/C (endpoint: median survival time, dose: 0.65 mg/kg/injection, schedule: Q01DX008 (sc), vehicle: other): 155 % of control and 166 % of control
- T/C (endpoint: median survival time, dose: 0.65 mg/kg/injection, schedule: Q01DX009 (sc), vehicle: other): 169 % of control
- T/C (endpoint: median survival time, dose: 0.65 mg/kg/injection, schedule: Q01DX017 (sc), vehicle: sodium bicarbonate): 166 % of control
- T/C (endpoint: median survival time, dose: 0.65 mg/kg/injection, schedule: Q01DX Z (oral), vehicle: other): 90 % of control
- T/C (endpoint: median survival time, dose: 0.65 mg/kg/injection, schedule: Q02DX009 (sc), vehicle: other): 111 % of control
- T/C (endpoint: median survival time, dose: 0.65 mg/kg/injection, schedule: Q02DX Z (sc), vehicle: other): 111 % of control
- T/C (endpoint: median survival time, dose: 1.08 mg/kg/injection, schedule: Q01DX006 (sc), vehicle: other): 150 % of control
- T/C (endpoint: median survival time, dose: 1.08 mg/kg/injection, schedule: Q01DX008 (sc), vehicle: other): 160 % of control and 166 % of control
- T/C (endpoint: median survival time, dose: 1.08 mg/kg/injection, schedule: Q01DX009 (ip), vehicle: sodium bicarbonate): 156 % of control and 166 % of control and 168 % of control
- T/C (endpoint: median survival time, dose: 1.08 mg/kg/injection, schedule: Q01DX017 (sc), vehicle: sodium bicarbonate): 158 % of control
- T/C (endpoint: median survival time, dose: 1.08 mg/kg/injection, schedule: Q01DX Z (ip), vehicle: other): 160 % of control
- T/C (endpoint: median survival time, dose: 1.08 mg/kg/injection, schedule: Q01DX Z (oral), vehicle: other): 110 % of control
- T/C (endpoint: median survival time, dose: 1.08 mg/kg/injection, schedule: Q02DX009 (sc), vehicle: other): 119 % of control
- T/C (endpoint: median survival time, dose: 1.08 mg/kg/injection, schedule: Q02DX Z (sc), vehicle: other): 122 % of control
- T/C (endpoint: median survival time, dose: 1.08 mg/kg/injection, schedule: Q#A X Z (sc), vehicle: other): 166 % of control
- T/C (endpoint: median survival time, dose: 1.5 mg/kg/injection, schedule: Q01DX009 (ip), vehicle: sodium bicarbonate): 155 % of control and 167 % of control
- T/C (endpoint: median survival time, dose: 1.8 mg/kg/injection, schedule: Q01DX006 (sc), vehicle: other): 155 % of control
- T/C (endpoint: median survival time, dose: 1.8 mg/kg/injection, schedule: Q01DX008 (sc), vehicle: other): 160 % of control
- T/C (endpoint: median survival time, dose: 1.8 mg/kg/injection, schedule: Q01DX009 (ip), vehicle: sodium bicarbonate): 166 % of control and 171 % of control
- T/C (endpoint: median survival time, dose: 2.89 mg/kg/injection, schedule: Q01DX Z (ip), vehicle: other): 155 % of control
- T/C (endpoint: median survival time, dose: 3.0 mg/kg/injection, schedule: Q01DX006 (sc), vehicle: other): 160 % of control and 166 % of control
- T/C (endpoint: median survival time, dose: 3.0 mg/kg/injection, schedule: Q01DX008 (sc), vehicle: other): 160 % of control
- T/C (endpoint: median survival time, dose: 3.0 mg/kg/injection, schedule: Q01DX010 (sc), vehicle: other): 161 % of control
- T/C (endpoint: median survival time, dose: 3.0 mg/kg/injection, schedule: Q01DX012 (ip), vehicle: sodium bicarbonate): 122 % of control
- T/C (endpoint: median survival time, dose: 3.0 mg/kg/injection, schedule: Q01DX Z (oral), vehicle: other): 160 % of control
- T/C (endpoint: median survival time, dose: 3.0 mg/kg/injection, schedule: Q02DX009 (sc), vehicle: other): 164 % of control
- T/C (endpoint: median survival time, dose: 3.0 mg/kg/injection, schedule: Q02DX Z (sc), vehicle: other): 166 % of control
- T/C (endpoint: median survival time, dose: 3.02 mg/kg/injection, schedule: Q01DX Z (sc), vehicle: other): 166 % of control
- T/C (endpoint: median survival time, dose: 3.64 mg/kg/injection, schedule: Q01DX Z (sc), vehicle: other): 166 % of control
- T/C (endpoint: median survival time, dose: 3.9 mg/kg/injection, schedule: Q01DX Z (sc), vehicle: other): 150 % of control
- T/C (endpoint: median survival time, dose: 4.0 mg/kg/injection, schedule: Q01DX Z (sc), vehicle: water): 155 % of control
- T/C (endpoint: median survival time, dose: 4.7 mg/kg/injection, schedule: Q01DX Z (sc), vehicle: other): 166 % of control
- T/C (endpoint: median survival time, dose: 5.0 mg/kg/injection, schedule: Q01DX009 (ip), vehicle: sodium bicarbonate): 166 % of control and 171 % of control
- T/C (endpoint: median survival time, dose: 5.0 mg/kg/injection, schedule: Q01DX025 (sc), vehicle: other): 168 % of control
- T/C (endpoint: median survival time, dose: 5.0 mg/kg/injection, schedule: Q01DX Z (sc), vehicle: sodium bicarbonate): 100 % of control
- T/C (endpoint: median survival time, dose: 6.0 mg/kg/injection, schedule: Q01DX009 (ip), vehicle: sodium bicarbonate): 119 % of control
- T/C (endpoint: median survival time, dose: 6.0 mg/kg/injection, schedule: Q01DX Z (oral), vehicle: other): 156 % of control
- T/C (endpoint: median survival time, dose: 14.0 mg/kg/injection, schedule: Q## X Z (sc), vehicle: other): 109 % of control and 113 % of control
- T/C (endpoint: median survival time, dose: 62.5 mg/kg/injection, schedule: Q01DX001 (sc), vehicle: other): 111 % of control
- T/C (endpoint: median survival time, dose: 65.0 mg/kg/injection, schedule: Q04DX005 (sc), vehicle: sodium bicarbonate): 108 % of control
- T/C (endpoint: median survival time, dose: 65.0 mg/kg/injection, schedule: Q## X Z (sc), vehicle: other): 152 % of control
- T/C (endpoint: median survival time, dose: 100.0 mg/kg/injection, schedule: Q01DX001 (sc), vehicle: sodium bicarbonate): 150 % of control
- T/C (endpoint: median survival time, dose: 108.0 mg/kg/injection, schedule: Q## X Z (sc), vehicle: other): 117 % of control
- T/C (endpoint: median survival time, dose: 125.0 mg/kg/injection, schedule: Q01DX001 (sc), vehicle: other): 116 % of control
